# Test results: the kinase profiling compilation of Christmann-Franck et al. (2016)
# Legend:
# Assay in all cases: KINOMEscan competition binding
# Conditions in all cases: compound 0.5 µM
# IRAK4 (human) = IRAK4 (human) (UniProt Q9NWZ3)
# INSR (human) = INSR (human) (UniProt P06213)
# MAP3K7 (human) = MAP3K7 (human) (UniProt O43318)
# OXSR1 (human) = OXSR1 (human) (UniProt O95747)
# MAPK3 (human) = MAPK3 (human) (UniProt P27361)
# IRAK1 (human) = IRAK1 (human) (UniProt P51617)
# STK3 (human) = STK3 (human) (UniProt Q13188)
# RIPK2 (human) = RIPK2 (human) (UniProt O43353)
# RIPK2 (human), sequence (O43353 whole entry, looked up): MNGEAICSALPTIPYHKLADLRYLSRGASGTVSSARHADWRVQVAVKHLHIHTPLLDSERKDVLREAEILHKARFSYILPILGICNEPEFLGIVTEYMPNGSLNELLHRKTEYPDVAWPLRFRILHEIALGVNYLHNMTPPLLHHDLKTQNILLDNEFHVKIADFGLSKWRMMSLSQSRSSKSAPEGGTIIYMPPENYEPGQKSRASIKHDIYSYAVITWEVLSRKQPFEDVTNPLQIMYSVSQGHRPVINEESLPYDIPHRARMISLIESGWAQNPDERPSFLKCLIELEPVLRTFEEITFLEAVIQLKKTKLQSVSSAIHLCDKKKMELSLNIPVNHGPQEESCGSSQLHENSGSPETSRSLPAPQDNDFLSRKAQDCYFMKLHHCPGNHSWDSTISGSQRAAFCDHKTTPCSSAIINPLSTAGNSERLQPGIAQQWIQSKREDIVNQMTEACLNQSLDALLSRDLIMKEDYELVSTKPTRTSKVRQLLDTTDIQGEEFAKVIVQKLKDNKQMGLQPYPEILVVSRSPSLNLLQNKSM
# NEK5 (human) = NEK5 (human) (UniProt Q6P3R8)
# MAP3K10 (human) = MAP3K10 (human) (UniProt Q02779)
# STK32B (human) = STK32B (human) (UniProt Q9NY57)
# TEK (human) = TEK (human) (UniProt Q02763)
# [1] = test system: KIT (human), P10721 [V559D]
# HIPK4 (human) = HIPK4 (human) (UniProt Q8NE63)
# HIPK4 (human), sequence (Q8NE63 whole entry, looked up): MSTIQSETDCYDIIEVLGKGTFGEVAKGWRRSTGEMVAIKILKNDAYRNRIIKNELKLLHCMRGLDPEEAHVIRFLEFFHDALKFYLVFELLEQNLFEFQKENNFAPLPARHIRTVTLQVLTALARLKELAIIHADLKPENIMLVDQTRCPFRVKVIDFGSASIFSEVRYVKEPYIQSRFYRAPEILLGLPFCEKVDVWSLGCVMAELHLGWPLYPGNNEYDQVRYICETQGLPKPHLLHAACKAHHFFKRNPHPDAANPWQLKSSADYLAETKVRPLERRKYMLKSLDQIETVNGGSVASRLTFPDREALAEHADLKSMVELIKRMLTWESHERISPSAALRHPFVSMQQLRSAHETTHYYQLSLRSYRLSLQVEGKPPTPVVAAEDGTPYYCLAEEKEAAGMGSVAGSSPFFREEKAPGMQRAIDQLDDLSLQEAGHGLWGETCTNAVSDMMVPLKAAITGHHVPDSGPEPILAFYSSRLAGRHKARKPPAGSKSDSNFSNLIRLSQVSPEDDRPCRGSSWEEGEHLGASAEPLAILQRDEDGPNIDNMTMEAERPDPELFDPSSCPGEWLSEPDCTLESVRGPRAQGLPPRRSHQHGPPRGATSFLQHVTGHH
# RPS6KA4 KD2 (human) = RPS6KA4 KD2 (human) (UniProt O75676)
# TYRO3 (human) = TYRO3 (human) (UniProt Q06418)
# RPS6KB1 (human) = RPS6KB1 (human) (UniProt P23443)
# RPS6KB1 (human), sequence (P23443 whole entry, looked up): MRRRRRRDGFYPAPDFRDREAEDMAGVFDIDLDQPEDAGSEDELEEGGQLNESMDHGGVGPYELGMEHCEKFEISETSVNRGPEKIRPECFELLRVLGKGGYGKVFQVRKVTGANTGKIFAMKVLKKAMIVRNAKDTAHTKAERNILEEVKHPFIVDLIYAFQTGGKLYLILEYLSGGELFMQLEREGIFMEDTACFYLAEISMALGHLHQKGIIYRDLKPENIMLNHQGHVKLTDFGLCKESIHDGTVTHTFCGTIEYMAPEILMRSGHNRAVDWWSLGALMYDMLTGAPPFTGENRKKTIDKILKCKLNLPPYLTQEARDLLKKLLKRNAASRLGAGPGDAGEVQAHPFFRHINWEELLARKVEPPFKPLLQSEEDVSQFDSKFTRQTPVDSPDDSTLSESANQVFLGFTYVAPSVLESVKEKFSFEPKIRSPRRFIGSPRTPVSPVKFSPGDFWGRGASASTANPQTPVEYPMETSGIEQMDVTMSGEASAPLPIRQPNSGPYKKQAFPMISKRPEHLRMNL
# BMPR2 (human) = BMPR2 (human) (UniProt Q13873)
# PRKAA2 (human) = PRKAA2 (human) (UniProt P54646)
# GRK1 (human) = GRK1 (human) (UniProt Q15835)
# GRK1 (human), sequence (Q15835 whole entry, looked up): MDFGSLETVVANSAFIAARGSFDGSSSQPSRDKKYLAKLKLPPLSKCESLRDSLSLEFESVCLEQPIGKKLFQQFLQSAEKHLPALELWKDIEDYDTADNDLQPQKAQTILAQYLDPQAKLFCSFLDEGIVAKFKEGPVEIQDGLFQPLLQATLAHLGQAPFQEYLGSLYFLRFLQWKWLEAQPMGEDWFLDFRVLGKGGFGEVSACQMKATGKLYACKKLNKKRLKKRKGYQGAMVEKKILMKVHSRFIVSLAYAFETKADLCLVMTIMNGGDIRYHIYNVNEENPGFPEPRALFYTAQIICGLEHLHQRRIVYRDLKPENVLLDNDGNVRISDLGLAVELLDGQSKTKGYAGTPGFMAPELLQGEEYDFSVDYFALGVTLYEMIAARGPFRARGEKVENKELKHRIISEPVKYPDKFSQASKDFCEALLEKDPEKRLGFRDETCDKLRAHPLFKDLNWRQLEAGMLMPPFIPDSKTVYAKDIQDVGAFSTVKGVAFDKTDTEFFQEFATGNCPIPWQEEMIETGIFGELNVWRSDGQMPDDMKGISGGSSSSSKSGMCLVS
# [2] = test system: RET (human), P07949 [V804M]
# RPS6KA6 KD1 (human) = RPS6KA6 KD1 (human) (UniProt Q9UK32)
# RPS6KA6 KD1 (human), sequence (Q9UK32 whole entry, looked up): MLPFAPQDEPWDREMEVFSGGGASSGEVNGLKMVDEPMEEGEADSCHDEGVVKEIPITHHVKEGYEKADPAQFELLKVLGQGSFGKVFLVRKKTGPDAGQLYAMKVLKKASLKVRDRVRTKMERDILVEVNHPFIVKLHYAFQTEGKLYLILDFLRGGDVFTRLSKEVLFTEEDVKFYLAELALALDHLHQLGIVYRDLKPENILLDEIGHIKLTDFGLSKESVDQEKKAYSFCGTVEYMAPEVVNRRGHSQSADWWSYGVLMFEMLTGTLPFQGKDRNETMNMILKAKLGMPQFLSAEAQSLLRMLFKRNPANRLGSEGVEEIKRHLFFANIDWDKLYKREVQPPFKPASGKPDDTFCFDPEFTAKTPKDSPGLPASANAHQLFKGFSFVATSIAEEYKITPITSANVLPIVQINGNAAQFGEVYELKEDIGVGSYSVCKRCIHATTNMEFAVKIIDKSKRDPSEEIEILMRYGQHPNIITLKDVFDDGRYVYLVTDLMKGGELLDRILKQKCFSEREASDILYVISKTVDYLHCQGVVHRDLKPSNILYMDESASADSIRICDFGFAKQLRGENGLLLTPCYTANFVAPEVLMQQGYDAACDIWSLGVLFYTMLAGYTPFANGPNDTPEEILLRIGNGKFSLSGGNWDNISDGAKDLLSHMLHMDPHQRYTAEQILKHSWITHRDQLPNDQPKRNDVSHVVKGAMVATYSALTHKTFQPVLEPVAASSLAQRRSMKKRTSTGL
# SIK1 (human) = SIK1 (human) (UniProt P57059)
# CDKL3 (human) = CDKL3 (human) (UniProt Q8IVW4)
# CAMK2D (human) = CAMK2D (human) (UniProt Q13557)
# CAMK2D (human), sequence (Q13557 whole entry, looked up): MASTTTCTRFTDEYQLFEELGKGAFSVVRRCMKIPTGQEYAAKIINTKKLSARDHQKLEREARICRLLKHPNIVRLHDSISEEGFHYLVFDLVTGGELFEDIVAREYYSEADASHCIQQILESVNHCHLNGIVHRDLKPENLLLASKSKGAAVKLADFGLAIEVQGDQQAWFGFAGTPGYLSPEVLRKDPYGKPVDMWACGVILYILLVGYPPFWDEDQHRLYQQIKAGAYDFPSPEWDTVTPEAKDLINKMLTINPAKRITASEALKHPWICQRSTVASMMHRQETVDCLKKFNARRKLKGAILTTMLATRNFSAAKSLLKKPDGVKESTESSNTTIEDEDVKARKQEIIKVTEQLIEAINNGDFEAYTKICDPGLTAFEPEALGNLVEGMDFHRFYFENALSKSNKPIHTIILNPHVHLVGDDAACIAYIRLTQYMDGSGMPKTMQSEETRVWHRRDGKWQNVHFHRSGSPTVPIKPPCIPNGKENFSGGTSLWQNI
# CAMK2G (human) = CAMK2G (human) (UniProt Q13555)
# CAMK2G (human), sequence (Q13555 whole entry, looked up): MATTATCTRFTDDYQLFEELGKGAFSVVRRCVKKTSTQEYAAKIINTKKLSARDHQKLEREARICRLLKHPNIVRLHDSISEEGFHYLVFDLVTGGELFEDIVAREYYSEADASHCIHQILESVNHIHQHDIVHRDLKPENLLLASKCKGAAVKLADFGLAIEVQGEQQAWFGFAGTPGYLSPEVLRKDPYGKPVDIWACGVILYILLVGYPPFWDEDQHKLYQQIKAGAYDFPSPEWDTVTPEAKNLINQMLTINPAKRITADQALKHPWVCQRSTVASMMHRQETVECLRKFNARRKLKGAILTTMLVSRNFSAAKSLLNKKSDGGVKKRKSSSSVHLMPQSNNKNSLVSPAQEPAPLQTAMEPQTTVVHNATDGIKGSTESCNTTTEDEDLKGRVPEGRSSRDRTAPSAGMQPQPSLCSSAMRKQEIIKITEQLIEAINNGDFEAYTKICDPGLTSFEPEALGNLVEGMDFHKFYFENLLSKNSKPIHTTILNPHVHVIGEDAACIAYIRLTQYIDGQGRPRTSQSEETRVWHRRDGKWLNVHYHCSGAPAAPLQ
# CRK2 (P.falciparum) = CRK2 (P.falciparum) (UniProt P61075)
# CRK2 (P.falciparum), sequence (P61075 whole entry, looked up): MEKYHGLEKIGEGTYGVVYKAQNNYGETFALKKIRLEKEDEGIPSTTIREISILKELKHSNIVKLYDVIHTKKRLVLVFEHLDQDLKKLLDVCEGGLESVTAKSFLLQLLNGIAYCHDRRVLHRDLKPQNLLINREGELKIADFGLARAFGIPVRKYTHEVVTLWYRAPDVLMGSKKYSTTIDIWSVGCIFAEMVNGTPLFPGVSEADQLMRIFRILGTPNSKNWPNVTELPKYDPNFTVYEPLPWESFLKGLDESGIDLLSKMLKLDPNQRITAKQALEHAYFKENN
# STK32A (human) = STK32A (human) (UniProt Q8WU08)
# LTK (human) = LTK (human) (UniProt P29376)
# AKT2 (human) = AKT2 (human) (UniProt P31751)
# ULK3 (human) = ULK3 (human) (UniProt Q6PHR2)
# TGFBR2 (human) = TGFBR2 (human) (UniProt P37173)
# CSF1R (human) = CSF1R (human) (UniProt P07333)
# RPS6KA5 KD1 (human) = RPS6KA5 KD1 (human) (UniProt O75582)
# MAP3K5 (human) = MAP3K5 (human) (UniProt Q99683)
# YES1 (human) = YES1 (human) (UniProt P07947)
# WEE1 (human) = WEE1 (human) (UniProt P30291)
# WEE1 (human), sequence (P30291 whole entry, looked up): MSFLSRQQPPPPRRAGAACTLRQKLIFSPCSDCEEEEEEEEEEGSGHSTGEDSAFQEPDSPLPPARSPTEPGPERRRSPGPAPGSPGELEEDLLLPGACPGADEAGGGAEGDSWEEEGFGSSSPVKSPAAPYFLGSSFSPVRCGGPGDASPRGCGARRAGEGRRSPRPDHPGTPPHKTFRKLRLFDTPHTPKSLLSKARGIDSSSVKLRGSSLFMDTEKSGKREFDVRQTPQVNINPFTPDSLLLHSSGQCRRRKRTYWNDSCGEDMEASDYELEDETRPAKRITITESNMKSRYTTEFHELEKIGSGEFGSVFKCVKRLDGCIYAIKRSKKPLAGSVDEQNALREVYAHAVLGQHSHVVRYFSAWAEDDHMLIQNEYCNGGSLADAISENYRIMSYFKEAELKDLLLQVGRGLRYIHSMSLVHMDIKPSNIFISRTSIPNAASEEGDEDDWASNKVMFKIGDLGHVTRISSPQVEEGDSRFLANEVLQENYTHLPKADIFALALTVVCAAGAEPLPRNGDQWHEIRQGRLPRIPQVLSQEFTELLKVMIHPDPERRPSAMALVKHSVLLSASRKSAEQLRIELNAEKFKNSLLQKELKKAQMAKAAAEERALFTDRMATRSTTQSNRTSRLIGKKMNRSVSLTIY
# EPHB6 (human) = EPHB6 (human) (UniProt O15197)
# PRKCQ (human) = PRKCQ (human) (UniProt Q04759)
# CDK4 CCND1 (human) = CDK4 CCND1 (human) (UniProt P11802+P24385)
# CSNK1E (human) = CSNK1E (human) (UniProt P49674)
structure (smiles),measurement,setting,value
Cn1c2ccccc2c2c3c(c4c5ccccc5n(CCC#N)c4c21)CNC3=O,"kinase still bound, per cent of control",IRAK4 (human),0.2%
same,"kinase still bound, per cent of control",INSR (human),84%
same,"kinase still bound, per cent of control",MAP3K7 (human),8%
same,"kinase still bound, per cent of control",OXSR1 (human),100%
same,"kinase still bound, per cent of control",MAPK3 (human),96%
same,"kinase still bound, per cent of control",IRAK1 (human),14%
same,"kinase still bound, per cent of control",STK3 (human),0.8%
same,"kinase still bound, per cent of control",RIPK2 (human),100%
same,"kinase still bound, per cent of control",NEK5 (human),100%
same,"kinase still bound, per cent of control",MAP3K10 (human),98%
same,"kinase still bound, per cent of control",STK32B (human),100%
same,"kinase still bound, per cent of control",TEK (human),99%
same,"kinase still bound, per cent of control",[1],71%
same,"kinase still bound, per cent of control",HIPK4 (human),8%
same,"kinase still bound, per cent of control",RPS6KA4 KD2 (human),100%
same,"kinase still bound, per cent of control",TYRO3 (human),78%
same,"kinase still bound, per cent of control",RPS6KB1 (human),23%
same,"kinase still bound, per cent of control",BMPR2 (human),100%
same,"kinase still bound, per cent of control",PRKAA2 (human),73%
same,"kinase still bound, per cent of control",GRK1 (human),15%
same,"kinase still bound, per cent of control",[2],0%
same,"kinase still bound, per cent of control",RPS6KA6 KD1 (human),4.7%
same,"kinase still bound, per cent of control",SIK1 (human),83%
same,"kinase still bound, per cent of control",CDKL3 (human),91%
same,"kinase still bound, per cent of control",CAMK2D (human),33%
same,"kinase still bound, per cent of control",CAMK2G (human),41%
same,"kinase still bound, per cent of control",CRK2 (P.falciparum),85%
same,"kinase still bound, per cent of control",STK32A (human),94%
same,"kinase still bound, per cent of control",LTK (human),4.2%
same,"kinase still bound, per cent of control",AKT2 (human),95%
same,"kinase still bound, per cent of control",ULK3 (human),15%
same,"kinase still bound, per cent of control",TGFBR2 (human),100%
same,"kinase still bound, per cent of control",CSF1R (human),37%
same,"kinase still bound, per cent of control",RPS6KA5 KD1 (human),52%
same,"kinase still bound, per cent of control",MAP3K5 (human),56%
same,"kinase still bound, per cent of control",YES1 (human),96%
same,"kinase still bound, per cent of control",WEE1 (human),100%
same,"kinase still bound, per cent of control",EPHB6 (human),50%
same,"kinase still bound, per cent of control",PRKCQ (human),59%
same,"kinase still bound, per cent of control",CDK4 CCND1 (human),57%
same,"kinase still bound, per cent of control",CSNK1E (human),100%
